Test results from PubChem BioAssay (NCI).
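How tested: cells in 96-well plates exposed to compound for 48 hours at five concentrations. GI50 = concentration required for 50% inhibition of growth. Definition used: TGI = concentration required for complete inhibition of growth.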

Legend:
Experiment in all cases: growth of human tumour cells (NCI), 48 h
SNB-75 CNS = system: SNB-75 CNS
SK-MEL-28 melanoma = system: SK-MEL-28 melanoma
NCI-H226 lung = system: NCI-H226 lung
BT-549 breast = system: BT-549 breast
EKVX NSCLC = system: EKVX NSCLC
HL-60(TB) leukemia = system: HL-60(TB) leukemia
HCC-2998 colon = system: HCC-2998 colon
SF-539 CNS = system: SF-539 CNS
UACC-257 melanoma = system: UACC-257 melanoma
M14 melanoma = system: M14 melanoma

Structure (SMILES) | TGI (SNB-75 CNS) [µM] | TGI (SK-MEL-28 melanoma) [µM] | TGI (NCI-H226 lung) [µM] | TGI (BT-549 breast) [µM] | TGI (EKVX NSCLC) [µM] | TGI (HL-60(TB) leukemia) [µM] | TGI (HCC-2998 colon) [µM] | TGI (SF-539 CNS) [µM] | TGI (UACC-257 melanoma) [µM] | TGI (M14 melanoma) [µM] | GI50 (SNB-75 CNS) [µM] | GI50 (SK-MEL-28 melanoma) [µM] | GI50 (NCI-H226 lung) [µM] | GI50 (BT-549 breast) [µM] | GI50 (EKVX NSCLC) [µM] | GI50 (HL-60(TB) leukemia) [µM] | GI50 (HCC-2998 colon) [µM] | GI50 (SF-539 CNS) [µM] | GI50 (UACC-257 melanoma) [µM] | GI50 (M14 melanoma) [µM]
COc1ccc(/C=C/NC=O)cc1 | > 100 | > 100 | > 100 | > 100 | > 100 | > 100 | > 100 | > 100 | > 100 | > 100 |  |  |  |  |  |  |  |  |  | 
O=C(COc1cccc(/C=C2\CSc3ccccc3C2=O)c1)c1ccc(Cl)cc1 | 22.4 | 3.46 | 16 | 3.39 | 17.5 | > 21 | 2.8 | 8.22 | 6.85 | 3.09 | 5.04 | 1.78 | 4.43 | 1.69 | 7.45 | 3.57 | 1.47 | 3.05 | 2.68 | 1.63
COc1ccc(N(C)c2c3ccccc3nc3[nH]c4ccccc4c23)cc1 | 23.6 | 21.8 | 3.99 | 4.39 | 4.12 | 0.466 | 1.02 | 1.31 | 10 | 1.67 | 5.19 | 3.86 | 0.9 | 1.24 | 1.06 | 0.112 | 0.268 | 0.354 | 3.48 | 0.837
NC1CCC(N[C@@H]2C[C@H]2c2ccccc2)CC1 (stereo partly specified) | > 100 | > 100 | > 100 | > 100 | > 100 | > 100 | > 100 | 52 | > 100 | > 100 | 8.89 | > 100 | > 100 | > 100 | > 100 | > 100 | > 100 | 15.3 | > 100 | > 100
O=[N+]([O-])c1ccc2nc3ccccc3cc2c1 | 6.53 | 10.7 | 8.97 | 21.7 | 22.9 |  | 3.12 | 6.82 | 5.86 | 18.1 |  |  |  |  |  |  |  |  |  | 
COc1ccc2c(c1)/C(=N/OC(C)=O)c1c-2c(=O)[nH]c2ccccc12 | 25.9 | 26.6 | 29.8 | 24.1 | 21.6 | 4.88 | 13.5 | 46.4 | 34.2 | 27.4 | 11.1 | 12.7 | 14.3 | 7.99 | 6.38 | 1.83 | 3.29 | 16.9 | 17.3 | 13.2
NS(=O)(=O)c1ccc(NC(=O)c2cccc3cc4ccccc4nc23)cc1 | > 100 | > 100 | 98.7 | > 100 | > 100 | > 100 | > 100 | > 94.3 | > 100 | > 100 |  |  |  |  |  |  |  |  |  | 
COc1cc(/C=C2\C(=O)Nc3cccc(Cl)c32)cc(OC)c1OC | 84 | > 100 | > 100 | > 100 | > 100 | > 100 | > 100 | > 100 | > 100 | > 100 | 21.9 | > 100 | > 100 | > 100 | > 100 | 11 | > 100 | > 100 | > 100 | > 100
CN(C)CCCn1c2nc(=O)[nH]c(=O)c-2nc2cc(Cl)c(Cl)cc21 | 32.5 | 34 | 9.28 | 34.7 | 28.5 | 9.97 | 27.9 | 12.2 | 5.66 | 13 | 18 | 18.9 | 2.58 | 19.5 | 13.8 | 3.83 | 12.5 | 3.24 | 2.23 | 3.68
C=C1C[C@@]2(C)C(CC[C@]3(C)C2CC=C2C4CC(C)(C)C[C@@H](OC(=O)/C(C)=C\C)[C@]4(C(=O)O)CC[C@]23C)C(C)(C)C1=O (stereo partly specified) |  | 5.44 | 6.16 | 3.68 | 19 | 7.08 | 4.52 | 8.55 | 16.4 | 8.49 |  | 2.32 | 2.23 | 1.91 | 4.95 | 2.56 | 2.02 | 2.75 | 3.53 | 2.39
COc1ccccc1/C=C/C(=O)/C=C/c1ccccc1OC | 11.6 | 3.18 | 3.18 | 3.19 | 6.22 | 8.45 | 3.37 | 6.33 | 3.72 | 3.68 | 2.23 | 1.67 | 1.71 | 1.6 | 2.42 | 2.69 | 1.92 | 2.82 | 1.69 | 1.65
C=C1C(=O)O[C@H]2[C@H]1CC/C(Cn1cc(-c3cc(C)c(C)cc3C)nn1)=C\CC[C@@]1(C)O[C@@H]21 | 8.45 | 2.89 | 3.07 | 2.66 | 2.53 | 3.69 | 3.33 | 2.43 |  | 3.27 | 0.521 | 1.4 | 1.46 | 0.753 | 1.22 | 0.643 | 1.72 | 1.16 |  | 1.5
O=C1NN(c2ccccc2)C(=O)/C1=C/c1ccc(Br)o1 | 58.6 | 29.8 | 34.7 | 17.2 | 36.6 | > 81.1 |  | 41.9 | 37.3 | 16.2 | 24.3 | 7.03 | 13.5 |  | 1.54 | 10.5 |  | 20.5 | 15.4 | 
NC1=Nc2cc(OCCCN3Cc4ccccc4C3)c(OCC3CC3)cc2C12CCCC2 | 7.97 | 3.46 | 21 | 7.84 | 11.8 | 4.69 | 3.08 | 3.17 | 3.94 | 3.47 | 1.07 | 1.84 | 3.72 | 2.26 | 3.18 | 2.03 | 1.62 | 1.7 | 2.2 | 1.85
